We go through two compounds from patent US7557573B2, “NMR-based methods for detecting ligands, where the ligand or target are hyperpolarized and the NMR-spectrum is compared with a reference spectrum of the ligand or target” (GE Healthcare AS, priority 2002, dated 2009).

Test [1] relates to Urease. Briefly: Hyperpolarised 13C-urea NMR assay of enzymatic conversion and its inhibition. The settings on record: 10, 12 and 14 units urease, substrate concentration constant.
Description: The frozen sample was hyperpolarised for one hour (DNP method). The sample was dissolved in a phosphate buffer (10 mM, pH 7.6, 100° C., 8.5 ml (active dissolution volume 3 ml)) and 500 μl were transferred to a 10 mm NMR tube containing 2.5 ml of a solution (same buffer as for urea) containing 12 units urease (0.1 mg). A series of 40 one-dimensional ^13C spectra were collected as one every 3 s, with a reduced flip angle (15°).
It is possible to calibrate the flip angle, and the relaxation rate for urea is known. […] Another way of calculating the reaction rate for the system is to vary the enzyme concentration while keeping the concentration of substrate constant.
The latter approach was used in a series of experiments that were performed as described above, only the concentration of urease was varied. Three experiments were performed with 10 units, 12 units and 14 units urease. The urease activity was plotted as a function of concentration. From this plot, the reaction rate constant was extracted directly. The NMR signal intensities of urea in the individual experiments have been used to calculate the enzymatic activity.
Test [2] relates to Src homology domain 2 from growth binding hormone. The settings on record: cited from earlier work.
Test [3] shares this test system. Briefly: Hyperpolarised (DNP) 13C-NMR binding assay, ligand free vs bound signals. The settings on record: target to ligand ratio 4:1, ligand 24 μM, 25° C., single scan. How it is done:
The sample was placed in the polariser and hyperpolarised overnight (17 h) at 93.934 GHz and 100 mW (DNP method). The sample was brought into solution with phosphate buffer (pH 6.5, 100 mM, 60° C., 8.5 ml). The active dissolution volume was 3 ml with 90% recovery of substance, providing a final concentration of 5.7 μM. […] A liquid state NMR spectrum was acquired in one scan with a 90° pulse angle and acquisition time of 1 s. One NMR signal was obtained at 176.9 ppm from the ^13C-labeled ligand. The signal-to-noise ratio (SNR) of the spectrum was 50.
940 μl of the target solution (100 μM target, 5 mM DTT, 100 mM NaCl, 50 mM phosphate pH 6.5) was placed in 10 mm NMR tube with a bottom plug, reducing the active volume to […]. The tube was placed in a 9.4 T magnet with the temperature of the probe equilibrated to 25° C. A tube was connected to the bottom of the NMR tube to allow for injection of the ligand solution into the target solution.
The sample was placed in the polariser and hyperpolarised overnight (17 h) at 93.934 GHz and 100 mW (DNP method). […]
In this example, the target to ligand concentration ratio was 4:1. […] By varying the ligand to target concentration in the assay it would thus be possible to measure the binding affinity by quantifying the relative amounts of free and bound ligand visible in the spectra based on the knowledge of ligand/target concentrations used in the assay.

As for `NC(N)=O` [urea], the “rate constant for the system (enzymatic conversion of urea)” value in test [1] is 0.0019 s⁻¹. On to (1-^13C)—Ac—EpYINQ—NH2, for which the “exchange regime of ligand with the target” value in test [2] is “slow exchange with the target”. For the same compound, in test [3], the “NMR signals of hyperpolarised ligand in mixture with target (free/bound)” value was “two signals, one from the unbound ligand (176.94 ppm) and one from the bound ligand (176.2 ppm)”.
